Measured values as given in US10669274B2, “Azaphenalene-3-one derivative, preparation method therefor, and application therof” (SUZHOU KANGRUN PHARMACEUTICALS INC., priority 2017, dated 2020).

Target: T1, PARP1 (Homo sapiens, UniProt P09874)
T1 construct: purchased Trevigen
Assay: Determination of PARP1 inhibitory activity (Universal PARP colorimetric assay kit, Trevigen)
Type: biochemical
Details: for IC50: PARP1, OD at 450 nm, Logit method; for Inhibition (%): footnote: inhibition rate below 500 nM unless indicating otherwise
Experimental: Determination of PARP1 inhibitory activity
Method for determining PARP1 inhibitory activity:
(1) adding 50 μL of 1X PARP Buffer to each well, incubating for 30 min at room temperature, and drying;
(3) adding 25 μL of 1X PARP1 cocktail to each well and incubating for 60 min at room temperature;

T1 sequence (P09874 whole entry): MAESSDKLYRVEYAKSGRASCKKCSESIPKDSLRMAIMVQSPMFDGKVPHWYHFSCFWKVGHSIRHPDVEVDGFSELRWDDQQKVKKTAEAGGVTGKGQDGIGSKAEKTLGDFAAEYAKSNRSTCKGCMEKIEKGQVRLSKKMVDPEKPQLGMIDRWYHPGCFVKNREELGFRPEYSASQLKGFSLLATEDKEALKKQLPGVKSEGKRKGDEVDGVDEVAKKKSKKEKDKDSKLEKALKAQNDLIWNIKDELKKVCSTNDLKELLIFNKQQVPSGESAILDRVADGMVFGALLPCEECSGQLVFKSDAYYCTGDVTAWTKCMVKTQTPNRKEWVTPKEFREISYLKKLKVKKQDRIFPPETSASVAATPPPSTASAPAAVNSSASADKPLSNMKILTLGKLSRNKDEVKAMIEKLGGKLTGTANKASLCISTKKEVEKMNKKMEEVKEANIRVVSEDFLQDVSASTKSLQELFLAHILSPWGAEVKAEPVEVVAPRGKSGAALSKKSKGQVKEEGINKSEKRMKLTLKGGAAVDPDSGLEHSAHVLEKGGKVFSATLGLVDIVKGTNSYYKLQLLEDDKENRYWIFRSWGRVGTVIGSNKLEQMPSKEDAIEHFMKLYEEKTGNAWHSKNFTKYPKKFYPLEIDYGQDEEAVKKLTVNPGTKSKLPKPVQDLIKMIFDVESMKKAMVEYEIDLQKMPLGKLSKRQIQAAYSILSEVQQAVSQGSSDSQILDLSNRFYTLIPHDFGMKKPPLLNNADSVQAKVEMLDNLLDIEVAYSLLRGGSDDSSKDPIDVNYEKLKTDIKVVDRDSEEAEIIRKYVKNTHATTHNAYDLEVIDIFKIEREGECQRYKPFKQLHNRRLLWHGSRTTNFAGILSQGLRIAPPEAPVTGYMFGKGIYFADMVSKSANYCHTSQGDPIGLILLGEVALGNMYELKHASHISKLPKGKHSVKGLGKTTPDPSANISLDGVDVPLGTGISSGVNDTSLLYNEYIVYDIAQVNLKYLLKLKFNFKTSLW

Row | inhibition at 1 µM (PARP1 enzyme inhibition rate, 1 μM) [%] | inhibition at 10 µM (PARP1 enzyme inhibition rate, 10 μM) [%] | Structure (SMILES) | IC50 [nM] | Inhibition (%) (PARP1 enzyme inhibition rate)
1 | 23.6 | – | NC(=O)c1ccc(I)c([N+](=O)[O-])c1 [BSI-201, reference compound] | – | –
2 | – | 16.9 | NC(=O)c1cccc(N)c1 [Compound 3-AB, reference compound] | – | –
3 | – | – | CC1=CN2C(=Nc3cccc4c(=O)[nH]nc2c34)C=C1 [Compound 9] | 81.9 | 87.58
4 | – | – | O=c1[nH]nc2c3c(cccc13)N=C1C=CC(CNCC(F)(F)F)=CN12 [Compound A2] | 346 | 76.29
5 | – | – | CCN(CC)CC1=CN2C(=Nc3cccc4c(=O)[nH]nc2c34)C=C1 [Compound A3] | 137 | 84.77
6 | – | – | O=c1[nH]nc2c3c(cccc13)N=C1C=CC(CN3CCCC3)=CN12 [Compound A4] | 103 | 84.77
7 | – | – | O=c1[nH]nc2c3c(cccc13)N=C1C=CC(Cn3ccnc3)=CN12 [Compound A5] | 164 | 95.72
8 | – | – | O=c1[nH]nc2c3c(cccc13)N=C1C=CC(CN3CCCCC3)=CN12 [Compound A6] | 294 | 91.67
9 | – | – | O=c1[nH]nc2c3c(cccc13)N=C1C=CC(CN3CCOCC3)=CN12 [Compound A7] | 194 | 73.37
10 | – | – | CNC1CCN(CC2=CN3C(=Nc4cccc5c(=O)[nH]nc3c45)C=C2)CC1 [Compound A8] | – | 79.97
11 | – | – | CN(C)C1CCN(CC2=CN3C(=Nc4cccc5c(=O)[nH]nc3c45)C=C2)CC1 [Compound A9] | – | 82.15
12 | – | – | CN1CCC(N(C)CC2=CN3C(=Nc4cccc5c(=O)[nH]nc3c45)C=C2)CC1 [Compound A10] | 119 | 88.97
13 | – | – | CN(CC1=CN2C(=Nc3cccc4c(=O)[nH]nc2c34)C=C1)C1CCN(c2ccccc2)CC1 [Compound A11] | 160 | 92.42
14 | – | – | CN(CC1=CN2C(=Nc3cccc4c(=O)[nH]nc2c34)C=C1)C1CCN(Cc2ccccc2)CC1 [Compound A12] | – | 89.42
15 | – | – | O=c1[nH]nc2c3c(cccc13)N=C1C=CC(CN3CCc4ccc(F)cc4C3)=CN12 [Compound A13] | – | 79.67
